Measured values reported in US20220009920A1 (GB005, Inc., priority 2020, published 2022).

Columns and labels:
Test in all cases: Large panel kinase profiling
Type in all cases: biochemical
Conditions in all cases: 1 μM test article, 1 mM ATP
[1] = target: ERBB2/HER2 (Homo sapiens, UniProt P04626)
Method in brief: (§1)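 With ATP fixed at 1 mM, each kinase was exposed to 1 μM compound in a PhosphoSens CSox-Sensor reaction. Sealed plates were incubated at 30° C. and read in kinetic mode.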

[2] = target: T1, RPS6KA6/RSK4 (Homo sapiens, UniProt Q9UK32)
T1 construct: AssayQuant Technologies, Inc. (contract assay)
T1 sequence (Q9UK32 whole entry): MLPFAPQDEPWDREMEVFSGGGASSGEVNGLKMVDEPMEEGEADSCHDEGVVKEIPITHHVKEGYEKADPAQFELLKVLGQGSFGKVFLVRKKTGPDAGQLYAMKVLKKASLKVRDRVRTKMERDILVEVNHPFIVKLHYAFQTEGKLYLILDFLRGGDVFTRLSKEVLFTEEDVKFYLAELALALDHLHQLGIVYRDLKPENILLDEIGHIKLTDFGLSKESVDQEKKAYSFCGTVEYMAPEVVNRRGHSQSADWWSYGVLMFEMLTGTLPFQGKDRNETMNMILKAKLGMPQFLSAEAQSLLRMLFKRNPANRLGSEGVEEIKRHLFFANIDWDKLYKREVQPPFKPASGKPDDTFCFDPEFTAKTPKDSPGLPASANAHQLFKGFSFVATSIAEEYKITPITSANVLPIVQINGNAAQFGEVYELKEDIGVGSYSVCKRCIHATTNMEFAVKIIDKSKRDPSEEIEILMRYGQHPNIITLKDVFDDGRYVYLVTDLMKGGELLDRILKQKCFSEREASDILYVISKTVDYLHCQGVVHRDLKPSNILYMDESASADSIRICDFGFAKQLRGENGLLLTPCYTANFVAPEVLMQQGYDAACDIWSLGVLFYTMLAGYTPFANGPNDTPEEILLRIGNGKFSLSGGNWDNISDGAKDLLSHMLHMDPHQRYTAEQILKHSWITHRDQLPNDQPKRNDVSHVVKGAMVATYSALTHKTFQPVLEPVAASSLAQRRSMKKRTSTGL
Method in brief: as §1

[3] = target: T2, FLT1 (Homo sapiens, UniProt P17948)
T2 construct: AssayQuant Technologies, Inc. (service provider)
Method in brief: as §1

[4] = target: MAP3K1 (Homo sapiens, UniProt Q13233)
Method in brief: as §1

[5] = target: T3, MAPK10/JNK3 (Homo sapiens, UniProt P53779)
T3 construct: AssayQuant Technologies, Inc. (service provider)
T3 sequence (P53779 whole entry): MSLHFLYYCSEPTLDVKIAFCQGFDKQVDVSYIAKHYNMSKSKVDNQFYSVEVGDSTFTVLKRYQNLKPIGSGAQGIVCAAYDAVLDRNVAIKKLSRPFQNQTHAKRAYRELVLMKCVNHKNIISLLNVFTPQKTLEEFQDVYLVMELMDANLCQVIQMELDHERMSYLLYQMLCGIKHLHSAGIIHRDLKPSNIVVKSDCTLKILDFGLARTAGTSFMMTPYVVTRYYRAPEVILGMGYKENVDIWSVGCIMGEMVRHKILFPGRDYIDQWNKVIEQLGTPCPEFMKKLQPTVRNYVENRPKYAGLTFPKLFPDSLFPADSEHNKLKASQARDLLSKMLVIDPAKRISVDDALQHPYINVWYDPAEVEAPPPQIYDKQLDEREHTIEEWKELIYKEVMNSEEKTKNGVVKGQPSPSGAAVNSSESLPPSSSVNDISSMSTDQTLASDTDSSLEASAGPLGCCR
Method in brief: as §1

[6] = target: T4, RPS6KA3/RSK2 (Homo sapiens, UniProt P51812)
T4 construct: AssayQuant Technologies, Inc. (contract assay)
T4 sequence (P51812 whole entry): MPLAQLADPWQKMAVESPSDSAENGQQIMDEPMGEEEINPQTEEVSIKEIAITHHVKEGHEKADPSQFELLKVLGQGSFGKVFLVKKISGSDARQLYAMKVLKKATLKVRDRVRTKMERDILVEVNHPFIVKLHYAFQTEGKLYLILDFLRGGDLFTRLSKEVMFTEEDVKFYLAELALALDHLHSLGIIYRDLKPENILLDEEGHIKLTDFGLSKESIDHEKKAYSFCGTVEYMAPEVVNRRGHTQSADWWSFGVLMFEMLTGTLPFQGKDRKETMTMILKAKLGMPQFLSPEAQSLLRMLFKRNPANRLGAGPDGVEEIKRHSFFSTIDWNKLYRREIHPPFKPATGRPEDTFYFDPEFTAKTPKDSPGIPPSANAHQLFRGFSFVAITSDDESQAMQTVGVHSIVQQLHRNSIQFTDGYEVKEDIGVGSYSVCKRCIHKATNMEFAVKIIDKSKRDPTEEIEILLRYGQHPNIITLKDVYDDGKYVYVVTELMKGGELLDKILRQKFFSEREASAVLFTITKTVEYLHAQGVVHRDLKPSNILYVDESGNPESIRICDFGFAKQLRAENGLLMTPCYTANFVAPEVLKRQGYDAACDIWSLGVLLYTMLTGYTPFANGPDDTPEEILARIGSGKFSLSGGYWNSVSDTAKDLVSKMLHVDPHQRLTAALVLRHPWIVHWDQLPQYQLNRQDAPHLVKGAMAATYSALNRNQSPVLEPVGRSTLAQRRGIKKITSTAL
Method in brief: as §1

[7] = target: T5, GRK5 (Homo sapiens, UniProt P34947)
T5 construct: AssayQuant Technologies, Inc. (service provider)
T5 sequence (P34947 whole entry, species assumed): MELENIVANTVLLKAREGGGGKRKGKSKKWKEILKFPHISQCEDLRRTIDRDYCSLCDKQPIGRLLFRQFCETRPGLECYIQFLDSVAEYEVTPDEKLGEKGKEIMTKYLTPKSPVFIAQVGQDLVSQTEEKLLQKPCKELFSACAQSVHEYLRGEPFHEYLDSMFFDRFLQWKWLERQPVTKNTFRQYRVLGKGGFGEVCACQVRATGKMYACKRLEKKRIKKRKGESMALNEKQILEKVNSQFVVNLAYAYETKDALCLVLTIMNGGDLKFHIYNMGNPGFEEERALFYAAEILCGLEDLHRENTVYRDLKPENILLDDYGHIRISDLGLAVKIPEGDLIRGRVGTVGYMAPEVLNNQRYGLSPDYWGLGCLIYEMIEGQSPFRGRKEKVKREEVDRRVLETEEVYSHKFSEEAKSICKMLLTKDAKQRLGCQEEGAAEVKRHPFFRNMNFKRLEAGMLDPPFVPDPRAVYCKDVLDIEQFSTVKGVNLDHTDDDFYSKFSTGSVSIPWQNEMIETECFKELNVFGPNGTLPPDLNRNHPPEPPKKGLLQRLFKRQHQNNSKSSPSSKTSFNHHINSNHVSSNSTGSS
Method in brief: as §1

[8] = target: T6, CSNK2A1/CK2A1 (Homo sapiens, UniProt P68400)
T6 construct: AssayQuant Technologies, Inc. (service laboratory)
Method in brief: as §1

[9] = target: T7, CLK3 (Homo sapiens, UniProt P49761)
T7 construct: AssayQuant Technologies, Inc. (service laboratory)
T7 sequence (P49761 whole entry, species assumed): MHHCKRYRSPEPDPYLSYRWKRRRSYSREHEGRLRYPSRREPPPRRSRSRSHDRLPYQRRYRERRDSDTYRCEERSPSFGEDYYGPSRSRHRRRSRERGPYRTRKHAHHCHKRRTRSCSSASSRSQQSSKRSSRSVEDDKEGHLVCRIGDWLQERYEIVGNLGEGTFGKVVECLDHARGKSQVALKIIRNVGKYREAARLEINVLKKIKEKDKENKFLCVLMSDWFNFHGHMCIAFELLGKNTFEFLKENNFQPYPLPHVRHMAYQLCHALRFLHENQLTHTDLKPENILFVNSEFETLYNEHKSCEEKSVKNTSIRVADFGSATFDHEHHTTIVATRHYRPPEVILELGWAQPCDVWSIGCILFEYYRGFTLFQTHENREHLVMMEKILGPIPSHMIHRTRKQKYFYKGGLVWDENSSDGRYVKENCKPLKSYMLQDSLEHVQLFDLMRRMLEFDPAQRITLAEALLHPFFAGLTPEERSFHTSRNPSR
Method in brief: as §1

[10] = target: PRKDC/DNA-PK (Homo sapiens, UniProt P78527)
Method in brief: as §1

[11] = target: PRKCB1/PKCB1 (Homo sapiens, UniProt P05771)
Method in brief: as §1

[12] = target: T8, MYLK2 (Homo sapiens, UniProt Q9H1R3)
T8 construct: AssayQuant Technologies, Inc. (assay service)
Method in brief: as §1

[13] = target: T9, GSK3B (Homo sapiens, UniProt P49841)
T9 construct: AssayQuant Technologies, Inc. (service provider)
T9 sequence (P49841 whole entry, species assumed): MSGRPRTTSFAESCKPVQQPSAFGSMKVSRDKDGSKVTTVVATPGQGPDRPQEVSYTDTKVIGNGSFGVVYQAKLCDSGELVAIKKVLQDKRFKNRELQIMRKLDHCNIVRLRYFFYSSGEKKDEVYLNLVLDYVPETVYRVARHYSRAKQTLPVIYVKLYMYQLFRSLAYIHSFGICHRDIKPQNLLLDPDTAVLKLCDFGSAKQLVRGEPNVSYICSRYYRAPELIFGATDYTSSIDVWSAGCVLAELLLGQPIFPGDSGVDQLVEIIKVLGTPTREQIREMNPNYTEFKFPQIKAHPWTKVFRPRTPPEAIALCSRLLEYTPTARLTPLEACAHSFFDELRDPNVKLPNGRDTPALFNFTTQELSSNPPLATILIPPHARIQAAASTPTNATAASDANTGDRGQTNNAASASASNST
Method in brief: as §1

[14] = target: T10, HIPK1 (Homo sapiens, UniProt Q86Z02)
T10 construct: AssayQuant Technologies, Inc. (service provider)
Method in brief: as §1

[15] = target: T11, MAPK11/P38B (Homo sapiens, UniProt Q15759)
T11 construct: AssayQuant Technologies, Inc. (service provider)
T11 sequence (Q15759 whole entry): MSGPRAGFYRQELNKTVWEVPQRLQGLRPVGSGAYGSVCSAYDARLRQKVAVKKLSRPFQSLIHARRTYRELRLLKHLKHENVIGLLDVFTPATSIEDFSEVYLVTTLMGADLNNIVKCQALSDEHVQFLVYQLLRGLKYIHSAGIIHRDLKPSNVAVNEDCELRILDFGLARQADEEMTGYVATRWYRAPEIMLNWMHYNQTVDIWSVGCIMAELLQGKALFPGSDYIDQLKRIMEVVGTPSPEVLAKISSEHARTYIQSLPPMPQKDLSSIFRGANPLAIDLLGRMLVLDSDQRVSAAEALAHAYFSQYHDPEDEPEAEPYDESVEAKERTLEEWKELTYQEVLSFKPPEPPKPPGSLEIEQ
Method in brief: as §1

[16] = target: T12, EIF2AK2/PKR (Homo sapiens, UniProt P19525)
T12 construct: AssayQuant Technologies, Inc. (service laboratory)
Method in brief: as §1

[17] = target: T13, MAPK15/ERK7 (Homo sapiens, UniProt Q8TD08)
T13 construct: AssayQuant Technologies, Inc. (service provider)
T13 sequence (Q8TD08 1-544): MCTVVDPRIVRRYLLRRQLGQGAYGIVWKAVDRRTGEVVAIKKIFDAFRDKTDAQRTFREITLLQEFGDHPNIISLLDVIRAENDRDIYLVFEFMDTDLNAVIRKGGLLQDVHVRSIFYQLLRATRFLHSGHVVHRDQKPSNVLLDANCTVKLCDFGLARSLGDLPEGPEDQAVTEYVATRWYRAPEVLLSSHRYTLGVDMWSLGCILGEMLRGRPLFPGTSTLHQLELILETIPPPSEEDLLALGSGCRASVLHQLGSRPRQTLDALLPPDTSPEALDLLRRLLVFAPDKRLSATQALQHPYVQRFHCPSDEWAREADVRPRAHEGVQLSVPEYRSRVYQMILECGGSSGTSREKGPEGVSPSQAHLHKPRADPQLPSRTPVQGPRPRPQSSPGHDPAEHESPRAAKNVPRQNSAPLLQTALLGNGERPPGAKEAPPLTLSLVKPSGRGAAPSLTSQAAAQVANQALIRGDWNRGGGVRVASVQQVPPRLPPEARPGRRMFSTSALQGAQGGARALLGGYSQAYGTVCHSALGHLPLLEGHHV
Method in brief: as §1

[18] = target: T14, CDK1/E1 (Homo sapiens, UniProt P06493)
T14 construct: AssayQuant Technologies, Inc. (ran the panel)
T14 sequence (P06493 whole entry, species assumed): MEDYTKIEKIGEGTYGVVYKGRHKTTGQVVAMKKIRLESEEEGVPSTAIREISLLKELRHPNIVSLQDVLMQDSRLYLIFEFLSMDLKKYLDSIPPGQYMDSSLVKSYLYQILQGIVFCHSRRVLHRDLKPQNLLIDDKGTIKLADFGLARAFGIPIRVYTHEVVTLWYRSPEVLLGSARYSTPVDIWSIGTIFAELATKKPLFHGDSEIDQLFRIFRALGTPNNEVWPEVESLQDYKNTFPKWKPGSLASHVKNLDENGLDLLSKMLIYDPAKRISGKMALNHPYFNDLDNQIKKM
T14 sequence (P24864 whole entry partner, species assumed): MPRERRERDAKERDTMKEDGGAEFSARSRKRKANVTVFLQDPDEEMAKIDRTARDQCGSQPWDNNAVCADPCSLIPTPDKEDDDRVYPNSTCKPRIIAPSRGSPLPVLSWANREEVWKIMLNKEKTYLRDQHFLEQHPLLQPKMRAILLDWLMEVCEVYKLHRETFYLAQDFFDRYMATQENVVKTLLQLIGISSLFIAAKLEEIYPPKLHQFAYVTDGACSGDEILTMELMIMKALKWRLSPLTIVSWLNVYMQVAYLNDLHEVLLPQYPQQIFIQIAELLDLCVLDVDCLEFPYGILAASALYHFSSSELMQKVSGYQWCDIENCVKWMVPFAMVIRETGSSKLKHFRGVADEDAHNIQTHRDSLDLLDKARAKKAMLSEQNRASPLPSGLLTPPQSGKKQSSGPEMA
Method in brief: as §1

[19] = target: T15, EGFR (Homo sapiens, UniProt P00533)
T15 construct: AssayQuant Technologies, Inc. (service laboratory)
Method in brief: as §1

[20] = target: MAP3K14 (Homo sapiens, UniProt Q99558)
Method in brief: as §1

[21] = target: T16, MAPKAPK2/MK2 (Homo sapiens, UniProt P49137)
T16 construct: AssayQuant Technologies, Inc. (service provider)
T16 sequence (P49137 whole entry): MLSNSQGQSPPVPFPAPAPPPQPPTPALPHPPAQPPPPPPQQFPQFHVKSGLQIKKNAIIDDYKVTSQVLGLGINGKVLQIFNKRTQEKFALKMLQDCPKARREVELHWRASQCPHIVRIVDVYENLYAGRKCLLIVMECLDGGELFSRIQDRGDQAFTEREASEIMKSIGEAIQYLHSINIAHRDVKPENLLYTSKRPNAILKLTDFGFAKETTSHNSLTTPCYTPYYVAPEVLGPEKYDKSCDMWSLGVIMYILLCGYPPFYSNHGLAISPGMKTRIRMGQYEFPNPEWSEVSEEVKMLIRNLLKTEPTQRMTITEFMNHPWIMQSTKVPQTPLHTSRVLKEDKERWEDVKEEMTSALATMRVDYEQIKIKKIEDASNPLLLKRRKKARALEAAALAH
Method in brief: as §1

| Structure (SMILES) | inhibition at 1 µM [1] [%] | inhibition at 1 µM [2] [%] | inhibition at 1 µM [3] [%] | inhibition at 1 µM [4] [%] | inhibition at 1 µM [5] [%] | inhibition at 1 µM [6] [%] | inhibition at 1 µM [7] [%] | inhibition at 1 µM [8] [%] | inhibition at 1 µM [9] [%] | inhibition at 1 µM [10] [%] | inhibition at 1 µM [11] [%] | inhibition at 1 µM [12] [%] | inhibition at 1 µM [13] [%] | inhibition at 1 µM [14] [%] | inhibition at 1 µM [15] [%] | inhibition at 1 µM [16] [%] | inhibition at 1 µM [17] [%] | inhibition at 1 µM [18] [%] | inhibition at 1 µM [19] [%] | inhibition at 1 µM [20] [%] | other results |
| --- | --- | --- | --- | --- | --- | --- | --- | --- | --- | --- | --- | --- | --- | --- | --- | --- | --- | --- | --- | --- | --- |
| C=CC(=O)N1CCCC(c2c(F)cc(C(N)=O)c3[nH]c4c(c23)CCCCC4)C1 (single isomer, unassigned) [Compound 5-6] | -2.2 | -5.8 | 12.1 | 6.4 | -13 | 5.8 | -8.8 | 0.4 | -29.3 | -40.6 | 8.6 | 16.8 | -6 | 6.6 | -3.3 | -28 | -3.4 | -3.6 | -7.8 | 10.5 | inhibition at 1 µM [21]: -5.9% |
| C=CC(=O)N1CCC[C@@H](c2c(F)cc(C(N)=O)c3[nH]c4c(c23)CC2(CC4)CC2)C1 [Compound 6-2, (S)-5-(1-acryloylpiperidin-3-yl)-6-fluoro-1,2,4,9-tetrahydrospiro[carbazole-3,1′-cyclopropane]-8-carboxamide] | 11.9 | -14.8 | 20.7 | -7.9 | 32.1 | -34.6 | -114 | -12 | -0.1 | 35 | 8.9 | -28.4 | 18.7 | 41.1 | 32.9 | -1.6 | 15.3 | -7 | -7.7 | -11.5 | inhibition at 1 µM [21]: 24.1% |
| C=CC(=O)N1CCC[C@@H](c2c(F)cc(C(N)=O)c3[nH]c4c(c23)CCC4)C1 [Compound 10-2, (S)-8-(1-acryloylpiperidin-3-yl)-7-fluoro-1,2,3,4-tetrahydrocyclo-penta[b]indole-5-carboxamide] | 14.5 | 0.3 | 8.6 | 10.3 | -4 | -27.7 | -2.2 | -32 | -19.2 | 14.6 | -9.4 | -33.6 | -12.5 | 33.6 | 5.7 | 65.5 | -2 | -10.6 | 1.6 | -0.2 | inhibition at 1 µM [21]: -7.1% |
